According to ChEMBL document CHEMBL1201862, “PubChem BioAssay data set” (2004):
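Test compounds were applied to cells in 96-well plates for 48 hours at 5 doses. GI50 marks 50% less growth.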 The source made the active and inactive calls. No stated cut-off is given here; in the data, active = GI50 up to about 1.1 µM and inactive = higher.

Key:
Assay in all cases: DTP human tumour cell line panel, 48 h
[1] = system: UO-31
[2] = system: KM12
[3] = system: HCT-15
[4] = system: IGROV-1
[5] = system: RXF 393
[6] = system: A498
[7] = system: HOP-62
[8] = system: SNB-75
[9] = system: NCI-H226
[10] = system: Malme-3M
[11] = system: SF-268
[12] = system: UACC-62
[13] = system: PC-3
[14] = system: CCRF-CEM
[15] = system: HOP-92
[16] = system: HCC 2998
[17] = system: MDA-MB-231
[18] = system: NCI-H23
[19] = system: CAKI-1
[20] = system: MDA-MB-435
[21] = system: NCI/ADR-RES
[22] = system: SK-MEL-2
[23] = system: ACHN
[24] = system: UACC-257
[25] = system: SK-OV-3
[26] = system: SN12C
[27] = system: SK-MEL-28
[28] = system: OVCAR-4
[29] = system: DU-145
[30] = system: SW-620
[31] = system: RPMI-8226
[32] = system: U-251
[33] = system: HT-29
[34] = system: A549
[35] = system: SR
[36] = system: HCT-116
[37] = system: NCI-H460
[38] = system: COLO 205
[39] = system: K562
[40] = system: LOX IMVI
[41] = system: 786-0
[42] = system: OVCAR-5
[43] = system: SNB-19
[44] = system: OVCAR-8
[45] = system: OVCAR-3
[46] = system: NCI-H522
[47] = system: MCF7
[48] = system: BT-549
[49] = system: Hs-578T
[50] = system: SK-MEL-5
[51] = system: SF-539
[52] = system: M14
[53] = system: SF-295
[54] = system: HL-60
[55] = system: T47D
[56] = system: MOLT-4
[57] = system: TK-10
[58] = system: EKVX

`Cn1ccc(C(=O)NCCN(CCNC(=O)c2ccn(C)c(=O)c2O)CCNC(=O)c2cccc(=O)n2O)c(O)c1=O` was tested, and the GI50 [1] was > 100 µM (inactive), the GI50 [2] was 56.4 µM (inactive) and the GI50 [3] was > 100 µM. For the same compound, the GI50 [4] was 29.2 µM (inactive), the GI50 [5] was > 100 µM (inactive) and the GI50 [6] was > 100 µM (inactive). For the same compound, the GI50 [7] was > 100 µM (inactive), the GI50 [8] was > 100 µM (inactive) and the GI50 [9] was > 100 µM (inactive). For the same compound, the GI50 [10] was > 100 µM (inactive), the GI50 [11] was > 100 µM (inactive) and the GI50 [12] was > 100 µM (inactive). For the same compound, the GI50 [13] was > 100 µM (inactive), the GI50 [14] was > 100 µM (inactive) and the GI50 [15] was > 100 µM (inactive). For the same compound, the GI50 [16] was > 100 µM (inactive), the GI50 [17] was > 100 µM (inactive) and the GI50 [18] was > 100 µM (inactive). The GI50 [19] was > 100 µM (inactive), the GI50 [20] was > 100 µM (inactive) and the GI50 [21] was > 100 µM (inactive). For the same compound, the GI50 [22] was > 100 µM (inactive), the GI50 [23] was > 100 µM (inactive) and the GI50 [24] was > 100 µM (inactive). For the same compound, the GI50 [25] was > 100 µM (inactive), the GI50 [26] was > 100 µM (inactive) and the GI50 [27] was > 100 µM (inactive). The GI50 [28] was > 100 µM (inactive), the GI50 [29] was > 100 µM (inactive) and the GI50 [30] was > 100 µM (inactive). For the same compound, the GI50 [31] was > 100 µM (inactive), the GI50 [32] was > 100 µM (inactive) and the GI50 [33] was > 100 µM (inactive). The GI50 [34] was > 100 µM (inactive), the GI50 [35] was > 100 µM (inactive) and the GI50 [36] was > 100 µM (inactive). The GI50 [37] was > 100 µM (inactive), the GI50 [38] was > 100 µM (inactive) and the GI50 [39] was > 100 µM (inactive). The GI50 [40] was > 100 µM (inactive), the GI50 [41] was > 100 µM (inactive) and the GI50 [42] was > 100 µM (inactive). For the same compound, the GI50 [43] was > 100 µM (inactive), the GI50 [44] was > 100 µM (inactive) and the GI50 [45] was > 100 µM (inactive). The GI50 [46] was > 100 µM (inactive), the GI50 [47] was > 100 µM (inactive) and the GI50 [48] was > 100 µM (inactive). For the same compound, the GI50 [49] was > 100 µM (inactive), the GI50 [50] was > 100 µM (inactive) and the GI50 [51] was > 100 µM (inactive). The GI50 [52] was > 100 µM (inactive), the GI50 [53] was > 100 µM (inactive) and the GI50 [54] was > 100 µM (inactive). The GI50 [55] was > 100 µM (inactive).
With `NCCCCN(CCCN)Cc1ccccc1` the GI50 [1] was > 100 µM (inactive), the GI50 [2] was > 100 µM (inactive) and the GI50 [3] was > 100 µM. For the same compound, the GI50 [56] was > 100 µM (inactive), the GI50 [4] was 60 µM (inactive) and the GI50 [5] was > 100 µM (inactive). For the same compound, the GI50 [6] was > 100 µM (inactive), the GI50 [7] was > 100 µM (inactive) and the GI50 [8] was 20.1 µM (inactive). For the same compound, the GI50 [9] was > 100 µM (inactive), the GI50 [11] was > 100 µM (inactive) and the GI50 [12] was > 100 µM (inactive). The GI50 [13] was > 100 µM (inactive), the GI50 [14] was > 100 µM (inactive) and the GI50 [15] was > 100 µM (inactive). The GI50 [16] was > 100 µM (inactive), the GI50 [17] was > 100 µM (inactive) and the GI50 [18] was > 100 µM (inactive). For the same compound, the GI50 [19] was > 100 µM (inactive), the GI50 [20] was > 100 µM (inactive) and the GI50 [21] was > 100 µM (inactive). The GI50 [22] was > 100 µM (inactive), the GI50 [23] was > 100 µM (inactive) and the GI50 [24] was > 100 µM (inactive). For the same compound, the GI50 [25] was > 100 µM (inactive), the GI50 [26] was > 100 µM (inactive) and the GI50 [27] was > 100 µM (inactive). The GI50 [57] was > 100 µM (inactive), the GI50 [28] was > 100 µM (inactive) and the GI50 [29] was > 100 µM (inactive). The GI50 [30] was > 100 µM (inactive), the GI50 [31] was > 100 µM (inactive) and the GI50 [32] was > 100 µM (inactive). For the same compound, the GI50 [33] was > 100 µM (inactive), the GI50 [34] was > 100 µM (inactive) and the GI50 [58] was > 100 µM (inactive). For the same compound, the GI50 [36] was > 100 µM (inactive), the GI50 [37] was > 100 µM (inactive) and the GI50 [38] was > 100 µM (inactive). For the same compound, the GI50 [39] was > 100 µM (inactive), the GI50 [41] was > 100 µM (inactive) and the GI50 [42] was > 100 µM (inactive). For the same compound, the GI50 [43] was > 100 µM (inactive), the GI50 [44] was > 100 µM (inactive) and the GI50 [45] was > 100 µM (inactive). For the same compound, the GI50 [46] was > 100 µM (inactive), the GI50 [47] was > 100 µM (inactive) and the GI50 [48] was > 100 µM (inactive). For the same compound, the GI50 [49] was > 100 µM (inactive), the GI50 [50] was > 100 µM (inactive) and the GI50 [51] was > 100 µM (inactive). For the same compound, the GI50 [52] was > 100 µM (inactive), the GI50 [53] was > 100 µM (inactive) and the GI50 [54] was > 100 µM (inactive). The GI50 [55] was > 100 µM (inactive).
